The subject of the test is gray mold fungus (Botrytis cinerea). The experiment in a line: Cucumber leaf disk preventive test against gray mold fungus. Type of test: in vivo. The note with it: 15° C., six days. The method, then: True leaf of cucumber was punched out with cork borer to 13 mm in diameter to prepare a leaf disk. In 24 well microwell plate that was dispensed with 1 ml 0.8% water agar, the leaf disk was placed such that the upper side of the leaf was in an upward direction. […] Control where 20 micro liter ion-exchange water was spread was prepared (for non-treated group). After confirming that the spray solution was dried, conidium of gray mold fungus (Botrytis cinerea) was suspended into potato dextrose broth (DIFCO) in a density of about 10^5 conidia/mL and was then subjected to a spray inoculation. After leaving to stand the leaf disk in a growth chamber set up at 15° C. for six days, an onset area on each leaf was measured and a preventive value was then calculated by the following equation 1.
The same above operations were carried out using the present diamide compound (2c) or the present diamide compound (3) instead of the present diamide compound (2b), so as to obtain the respective preventive values. Preventive value(%)=100×(A−B)/A (Equation 1)
A: an onset area rate of plant belonging to non-treated group
B: an onset area rate of plant belonging to treated Group onset area rate=(onset area of the leaf disk)/(the total area of the leaf disk) […]

The results in this text go back to patent publication US8846720B2, “Pest controlling composition and method for controlling pest” (Sumitomo Chemical Company, Limited, priority 2010, dated 2014).

As for `CNC(=O)C(OC)c1ccccc1COc1cc(C)ccc1C` (centres unmarked) [the present amide compound], the “preventive value (%)” value (the present amide compound alone 1.0 ppm (dimethyl sulfoxide solution)) is listed as 46% and the “preventive value (%)” value (the present amide compound alone 2.5 ppm (dimethyl sulfoxide solution)) stood at 56%.
